Test results taken from patent US9126973B2, “Multiheteroaryl compounds as inhibitors of H-PGDS and their use for treating prostaglandin D2 mediated diseases” (Cayman Chemical Company, Incorporated, priority 2008, dated 2015).

Tests used:
H-PGDS [1] = target: T1, H-PGDS (Homo sapiens (Human), UniProt O60760); experiment: H-PGDS Fluorescence Polarization Binding Assay (FPBA); conditions: H-PGDS-MBP fusion enzyme, fluorescent probe, reduced glutathione 5 mM, 60-90 minutes at room temperature, 96-well format
T1 sequence (O60760 whole entry, the tested form may be a part): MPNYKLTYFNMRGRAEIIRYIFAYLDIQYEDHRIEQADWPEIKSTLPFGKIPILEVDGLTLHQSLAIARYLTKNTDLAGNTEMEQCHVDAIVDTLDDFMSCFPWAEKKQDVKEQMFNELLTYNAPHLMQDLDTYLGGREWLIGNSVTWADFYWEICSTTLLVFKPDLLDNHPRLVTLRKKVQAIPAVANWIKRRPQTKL
Protocol: H-PGDS Fluorescence Polarization Binding Assay This assay essentially is available from Cayman Chemical Company as Catalog item #600007. The test data reported for the aforementioned Examples (H-PGDS FPBA IC50) were generated using a 96-well, instead of the 384-well, format. […] Assays were performed in 96-well microtiter plates in 100 μL of total sample volume. Excitation and emission wavelengths appropriate for the employed detection analyte were used. […] Twelve clean microfuge tubes were labeled A1 through A12. […] Dimethyl sulfoxide (50 μL) was added to each of tubes A1 through A11. The HQL-79 control solution was serially diluted by removing 50 μL from tube A12 and placing it in tube A11 with subsequent thorough mixing of the contents of tube A11. Next, 50 μL was removed from tube A11 and was placed into tube A10 with subsequent thorough mixing of the contents of tube A10. This process was repeated for tubes A9 through A2. […] A test compound may be dissolved in DMSO, ethanol, or methanol at several concentrations when the titration endpoint is unknown. […] Assay cocktail (95 μL) was added to each plate well. DMSO (5 μL) from microfuge tube A1 was added to each plate well A1 and B1. Positive control solution (5 μL) from microfuge tube A2 was added to each plate well A2 and B2. Positive control solution (5 μL) from microfuge tube A3 was added to each plate well A3 and B3. This procedure was continued until all the positive control standard dilutions were aliquoted. Test compound solutions (5 μL) were added to the wells. […] The IC50 for a particular test compound was obtained by performing a full concentration titration versus a full concentration titration of positive control. Comparison of a single concentration of a test compound to the maximum binding well provided an assessment of the relative affinity of the test compound for H-PGDS-MBP. The plate was covered and incubated for 60-90 minutes at room temperature. The FP signal is stable for at least two hours. […] The measurements were taken in the fluorescent polarization mode with the z-height set to the middle of the well and the G-factor set to 1.13 on a Tecan Safire 2 reader.

H-PGDS [2] = target: T1, H-PGDS; experiment: H-PGDS Inhibitor Enzyme Immunoassay (EIA); type: biochemical; conditions: 25 ng H-PGDS, 40 μM PGH2, 1 mM GSH; PGD2 quantified by EIA
Protocol: H-PGDS Inhibitor Enzyme Immunoassay
The assay detects and measures PGD2 generated by H-PGDS. The prostanoid product is quantified via enzyme immunoassay (EIA) using a specific PGD2 antibody.
The assay is carried out by the following steps: • 1. Inhibitor screening is performed in 100 mM Tris-HCl, pH 8.0 containing 1 mM GSH, 1 mM MgCl2, 4% inhibitor/DMSO, 40 μM PGH2 and 25 ng of PGDS in a total volume of 125 μL. • 2. A reaction mixture containing 100 mM Tris-HCl, pH 8.0, 1 mM GSH, 1 mM MgCl2, 25 ng H-PGDS and 4% inhibitor or DMSO (uninhibited reaction) is preincubated at 25° C. for 10 minutes. • 3. Reactions are initiated using 5 μL of PGH2 and quenched every 15 seconds for one minute. Reactions are quenched by taking 10 μL of reaction mixture and adding to 490 μL of 100 mM phosphate buffer containing 0.1% BSA, 400 mM NaCl, 1 mM EDTA, 20 mM FeCl2, 10% 1N HCl, and 0.01% azide to prevent the non-enzymatic formation of PGD2 from PGH2. The FeCl2 serves the purpose of reducing PGH2 to 12-HHT. (Quench buffer is kept on ice at all times). • 4. Quenched samples (5 μL) are further diluted 100 fold in 495 μL of 100 mM phosphate buffer containing 0.1% BSA, 400 mM NaCl, 1 mM EDTA, and 0.01% azide for the PGD2 EIA assay. (Dilution buffers are kept on ice at all times).
The final 5000 fold diluted samples are analyzed following the protocol outlined in Cayman Chemical's commercially available PGD2 EIA kit (Cat. #512021). 50 μL of diluted sample is analyzed at least in duplicate in the EIA assay and the amount of PGD2 formed is quantified using a standard curve.

[3] = background statement with literature references; cited from earlier work

IC50 (H-PGDS [1]) [nM] | melting point [°C] | IC50 (H-PGDS [2]) [nM] | SMILES | antiallergic and antiasthmatic activity in vivo [3]
250 | 253 | 12 | c1ccc(-c2ncc(-c3cnc(-c4ccccc4)[nH]3)cn2)cc1 [Example 1, 2-phenyl-5-(2-phenyl-1H-imidazol-5-yl)pyrimidine] | 
480 | 206 | 97 | c1ccc(-c2ccc(-c3cnc(-c4ccccc4)[nH]3)cn2)cc1 [Example 2, 2-phenyl-5-(2-phenyl-1H-imidazol-5-yl)pyridine] | 
625 | 211 | 250 | Cn1c(-c2cnc(-c3ccccc3)nc2)cnc1-c1ccccc1 [Example 3, 5-(1-methyl-2-phenyl-1H-imidazol-5-yl)-2-phenylpyrimidine] | 
450 | 138 | 82 | Cc1nc(-c2ccccc2)[nH]c1-c1cnc(-c2ccccc2)nc1 [Example 4, 5-(4-methyl-2-phenyl-1H-imidazol-5-yl)-2-phenylpyrimidine] | 
280 | 240 | 47 | Fc1cccc(-c2ncc(-c3cnc(-c4ccccc4)[nH]3)cn2)c1 [Example 6, 2-(3-fluorophenyl)-5-(2-phenyl-1H-imidazol-5-yl)pyrimidine] | 
188 | 221 | 4 | Fc1cccc(-c2ncc(-c3cnc(-c4ccccc4)nc3)[nH]2)c1 [Example 8, 5-(2-(3-fluorophenyl)-1H-imidazol-5-yl)-2-phenylpyrimidine] | 
125 | 262 | 53 | c1ccc(-c2ncc(-c3cnc(-c4ccccn4)[nH]3)cn2)cc1 [Example 9, 2-phenyl-5-(2-(pyridin-2-yl)-1H-imidazol-5-yl)pyrimidine] | 
79 | 308 | 21 | c1ccc(-c2ncc(-c3cnc(-c4cccnc4)[nH]3)cn2)cc1 [Example 10, 2-phenyl-5-(2-(pyridin-3-yl)-1H-imidazol-5-yl)pyrimidine] | 
156 | 309 | 41 | Fc1cccc(-c2ncc(-c3cnc(-c4cccnc4)[nH]3)cn2)c1 [Example 11, 2-(3-fluorophenyl)-5-(2-(pyridin-3-yl)-1H-imidazol-5yl)pyrimidine] | 
125 | 300 | 75 | c1ccc(-c2ncc(-c3cnc(-c4ccncc4)[nH]3)cn2)cc1 [Example 13, 2-phenyl-5-(2-(pyridin-4-yl)-1H-imidazol-5-yl)pyrimidine] | 
625 | 235 | 59 | c1ccc(Cc2ncc(-c3cnc(-c4ccccc4)nc3)[nH]2)cc1 [Example 14, 5-(2-benzyl-1H-imidazol-5-yl)-2-phenylpyrimidine] | 
150 | 258 | 23 | C(=C\c1ncc(-c2cnc(-c3ccccc3)nc2)[nH]1)/c1cccnc1 [Example 15, (E)-2-phenyl-5-(2-(2-(pyridin-3-yl)vinyl)-1H-imidazol-5-yl)pyrimidine] | 
80 | 223 | 6 | c1ccc(CN2CCC(c3ncc(-c4cnc(-c5ccccc5)nc4)[nH]3)CC2)cc1 [Example 19, 5-(2-(1-benzylpiperidin-4-yl)-1H-imidazol-5-yl)-2-phenylpyrimidine] | 
625 | 236 | 370 | c1ccc(Oc2ncc(-c3cnc(-c4cccnc4)[nH]3)cn2)cc1 [Example 40, 2-phenoxy-5-(2-(pyridin-3-yl)-1H-imidazol-4-yl)pyrimidine] | 
7800 | 175 to 177 |  | c1ccc(-c2ncc(-c3ncco3)cn2)cc1 [Example 42, 2-(2-phenylpyrimidin-5-yl)oxazole] | 
2500 | 237 |  | c1ccc(-c2ncc(-c3nnn[nH]3)cn2)cc1 [Example 43, 2-phenyl-5-(1H-tetrazol-5-yl)pyrimidine] | 
2800 | 238 |  | c1ccc(-c2ncc(-c3ncc(-c4ccccc4)[nH]3)cn2)cc1 [Example 44, 2-phenyl-5-(5-phenyl-1H-imidazol-2-yl)pyrimidine] | 
125000 | 228 to 231 |  | c1ccc(-c2ncc(-c3cnc(-c4ccccc4)o3)cn2)cc1 [Example 46, 2-phenyl-5-(2-phenylpyrimidin-5-yl)oxazole] | 
> 20000 | 214.4 to 216.1 |  | c1ccc(-c2ncc(-c3csc(-c4ccccc4)n3)cn2)cc1 [Example 48, 2-phenyl-4-(2-phenylpyrimidin-5-yl)thiazole] | 
1000 | 280 to 282 | 84 | c1ccc(-c2ncc(-c3nnc(-c4ccccc4)[nH]3)cn2)cc1 [Example 49, 2-phenyl-5-(5-phenyl-4H-1,2,4-triazol-3-yl)pyrimidine] | 
1000 | 322 to 333 |  | c1ccc(-c2ncc(-c3nnc(-c4cccnc4)[nH]3)cn2)cc1 [Example 50, 2-phenyl-5-(5-(pyridin-3-yl)-1H-1,2,4-triazol-3-yl)pyrimidine] | 
1300 |  | 130 | CCOC(=O)c1cc(-c2cnc(Oc3ccccc3)nc2)[nH]n1 [Example 54, ethyl 5-(2-phenoxypyrimidin-5-yl)-1H-pyrazole-3-carboxylate] | 
650 |  | 420 | CN1CCN(C(=O)c2cc(-c3cnc(Oc4ccccc4)nc3)[nH]n2)CC1 [Example 57, (4-methylpiperazin-1-yl)(5-(2-phenoxypyrimidin-5-yl)-1H-pyrazol-3-yl)methanone] | 
> 20000 | 228 |  | Fc1cccc(-c2nc(-c3cnc(-c4ccccc4)nc3)cs2)c1 [Example 58, 2-(3-fluorophenyl)-4-(2-phenylpyrimidin-5-yl)thiazole] | 
1000 | 319 | 150 | c1ccc(-c2ncc(-c3csc(-c4cccnc4)n3)cn2)cc1 [Example 59, 4-(2-phenylpyrimidin-5-yl)-2-(pyridin-3-yl)thiazole] | 
> 20000 | 170 |  | c1ccc(Cc2nc(-c3cnc(-c4ccccc4)nc3)cs2)cc1 [Example 60, 2-benzyl-4-(2-phenylpyrimidin-5-yl)thiazole] | 
5000 | 290 |  | O=C(O)C(F)(F)F.c1ccc(-c2ncc(-c3csc(C4CCNCC4)n3)cn2)cc1 [Example 61, 4-(4-(2-phenylpyrimidin-5-yl)thiazol-2-yl)piperidinium 2,2,2-trifluoroacetate] | 
3400 | 134 to 136 |  | COCCCNC(=O)c1csc(-c2cnc(-c3ccccc3)nc2)n1 [Example 64, N-(3-methoxypropyl)-2-(2-phenylpyrimidin-5-yl)thiazole-4-carboxamide] | 
 |  |  | c1ccc(C(OC2CCN(CCCc3nnn[nH]3)CC2)c2ccccc2)cc1 [HQL-79] | antiallergic and antiasthmatic activity in vivo
